What was measured:
ACC = assay: Phosphorylation of the AMPK target ACC (Ser79) in primary cortical neurons; type: cell-based, mouse; conditions: 5 mM AICAR, increasing time intervals
Experimental: (§1) Primary cortical neurons were isolated from brain of wt or transgenic (Mapt^tm1(EGFP)klt Tg(MAPT)8cPdav/J; Jackson Laboratory) embryos at day 14.5. Cortices were collected in DMEM (Lonza) and cells were dissociated by incubation with Trypsin/EDTA for 6.5 min at 37° C. Cells were then diluted in neurobasal medium (Gibco-BRL) containing B27 supplement (Gibco BRL). Cells were plated at a density of 4.0×10^5 onto 0.2 mg/ml poly-D-lysin (Sigma) and 2 μg/ml Laminin (Sigma) coated 12 well plates. Neurons were incubated at 37° C. with 8% CO2. One hour after seeding a complete change of medium was performed. Later on, each 96 hours half volumes of the medium were replaced by fresh medium. After 7 days in culture neurons were treated.
Cells were incubated with the respective substances as follows: Metformin (Sigma) at final concentrations up to 2.5 mM for 1 to >24 hours, okadaic acid (Sigma) at final concentrations from 1 nM to 10 nM for 4 h, Fostricien (Sigma) at final concentration of 1 μM for 4 h and AICAR (cell signalling) at final concentration of 5 mM for 0.5-16 h. For cell treatment without insulin, medium containing B27+insulin supplement was replaced with medium containing B27-supplement without insulin 24 h before treatment. […]
Cell pellets were homogenized in Magic-Mix (48% UREA, 15 mM Tris-HCL pH 7.5, 8.7% Glycerin, 1% SDS, 0.004% Bromphenolblue, 143 mM Mercaptoethanol), sonicated and boiled for 5 min at 95° C. […] Antibodies used in this study were purchased from the following companies: Tau-5 (Biosource), anti-human PHF pSer202 (Thermo scientific), Tau pSer356 (Biosource), Tau pSer262 (Biosource), Tau pSer396 (Sigma), Actin (Sigma), ACC (cell signalling), ACC pSer79 (cell signalling), phospho-S6 ribosomal protein pSer241/244 (cell signalling), p70S6 Kinase (cell signalling), p70S6K pThr421/pSer424 (cell signalling), mTOR (cell signalling), AMPK (cell signallling, AMPK pThr172 (cell singnaling), HRP-anti-rabbit (Amersham), HRP-anti-mouse (Dianova). The resulting bands were quantified using Imagequant5.2. […]

tau = type: cell-based, mouse
Experimental: as §1
Cells were incubated with the respective substances as follows: Metformin (Sigma) at final concentrations up to 2.5 mM for 1 to >24 hours, okadaic acid (Sigma) at final concentrations from 1 nM to 10 nM for 4 h, Fostricien (Sigma) at final concentration of 1 μM for 4 h and AICAR (cell signalling) at final concentration of 5 mM for 0.5-16 h. For cell treatment without insulin, medium containing B27+insulin supplement was replaced with medium containing B27-supplement without insulin 24 h before treatment. 3 groups of 2 mice were treated with or without 5 mg/l metformin in the drinking water.
Cell pellets were homogenized in Magic-Mix (48% UREA, 15 mM Tris-HCL pH 7.5, 8.7% Glycerin, 1% SDS, 0.004% Bromphenolblue, 143 mM Mercaptoethanol), sonicated and boiled for 5 min at 95° C. Proteins were resolved on 8 or 10% SDS gels and blotted onto PVDF-membranes (Roche). Antibodies used in this study were purchased from the following companies: Tau-5 (Biosource), anti-human PHF pSer202 (Thermo scientific), Tau pSer356 (Biosource), Tau pSer262 (Biosource), Tau pSer396 (Sigma), Actin (Sigma), ACC (cell signalling), ACC pSer79 (cell signalling), phospho-S6 ribosomal protein pSer241/244 (cell signalling), p70S6 Kinase (cell signalling), p70S6K pThr421/pSer424 (cell signalling), mTOR (cell signalling), AMPK (cell signallling, AMPK pThr172 (cell singnaling), HRP-anti-rabbit (Amersham), HRP-anti-mouse (Dianova). The resulting bands were quantified using Imagequant5.2. Statistical analyses were performed using SigmaStat software package (v 3.0, SPSS, USA). For timecourse or dose-response studies, data were analyses by one-way ANOVA with post hoc Dunnett's or Bonferonni test to accommodate for multiple comparisons. A Student's t-test was used for two-group comparisons, as appropriate.

SMILES	ACC phosphorylation (Ser79) (ACC)	phosphorylation pattern of tau (PP2A sensitive site) (tau; 5 mM AICAR, first 16 hours of treatment)	phosphorylation of tau (Ser202) (tau; AICAR, first 8 hours of treatment)	phosphorylation at Ser202 (tau; 1 μM fostriecin alone over 4 hours)
NC(=O)c1ncn([C@@H]2O[C@H](CO)[C@@H](O)[C@H]2O)c1N [AICAR]	significantly increased	did not find a significant effect	did not see an effect	–
C[C@@](O)(/C=C/[C@H]1CC=CC(=O)O1)[C@@H](C[C@@H](O)\C=C/C=C\C=C\CO)OP(=O)(O)O [fostriecin]	–	–	–	increased
